The source of these data is article PMC9489682, “Synthesis and comparative evaluation of ^177Lu-labeled PEG and non-PEG variant peptides as HER2-targeting probes” (Scientific Reports, 2022).

One data set deals with MDA-MB-435 tumors. The note with it: in vivo; cited from earlier work. The procedure:
Besides A9 peptide other HER2-targeting peptides have been explored and investigated. […] However, the tumor uptake reduced to 0.10 ± 0.02% ID/g at 24 h p.i. which is much lower than the values of presently studied radiopeptides. […] Tumor-to muscle ra ...

Data set [1] can be described thus: Water solubility (remarks). The data set is classed as physicochemical. The note with it: authors' remark on the non-pegylated peptide.
A further data set is described as follows: Human serum stability. It counts as in vitro ADME. The following applies: human serum 500 μL, pH 7.4, 37 °C, 6 h, 25 µL (3.7 MBq) radiopeptide, acetonitrile precipitation, RP-HPLC radiochromatogram. The protocol: For serum stability studies blood was allowed to clot (1 h) followed by centrifugation (2300×g, 10 min). Measurements were performed by incubation of radiopeptides (25 µL, 3.7 MBq) with human serum (500 μL, pH 7.4) at 37 °C. After 6 h incubation acetonitrile (500 μL) was added to the sample for protein precipitation. Subsequently the sample was centrifuged, supernatant was collected and radiochemical purity was analyzed by RP-HPLC.

The target of another data set is T1, HER2 (Homo sapiens, UniProt P04626).
T1 construct: endogenous in cells; host or cells: SKBR3 human breast carcinoma cells
T1 sequence (P04626 23-1255): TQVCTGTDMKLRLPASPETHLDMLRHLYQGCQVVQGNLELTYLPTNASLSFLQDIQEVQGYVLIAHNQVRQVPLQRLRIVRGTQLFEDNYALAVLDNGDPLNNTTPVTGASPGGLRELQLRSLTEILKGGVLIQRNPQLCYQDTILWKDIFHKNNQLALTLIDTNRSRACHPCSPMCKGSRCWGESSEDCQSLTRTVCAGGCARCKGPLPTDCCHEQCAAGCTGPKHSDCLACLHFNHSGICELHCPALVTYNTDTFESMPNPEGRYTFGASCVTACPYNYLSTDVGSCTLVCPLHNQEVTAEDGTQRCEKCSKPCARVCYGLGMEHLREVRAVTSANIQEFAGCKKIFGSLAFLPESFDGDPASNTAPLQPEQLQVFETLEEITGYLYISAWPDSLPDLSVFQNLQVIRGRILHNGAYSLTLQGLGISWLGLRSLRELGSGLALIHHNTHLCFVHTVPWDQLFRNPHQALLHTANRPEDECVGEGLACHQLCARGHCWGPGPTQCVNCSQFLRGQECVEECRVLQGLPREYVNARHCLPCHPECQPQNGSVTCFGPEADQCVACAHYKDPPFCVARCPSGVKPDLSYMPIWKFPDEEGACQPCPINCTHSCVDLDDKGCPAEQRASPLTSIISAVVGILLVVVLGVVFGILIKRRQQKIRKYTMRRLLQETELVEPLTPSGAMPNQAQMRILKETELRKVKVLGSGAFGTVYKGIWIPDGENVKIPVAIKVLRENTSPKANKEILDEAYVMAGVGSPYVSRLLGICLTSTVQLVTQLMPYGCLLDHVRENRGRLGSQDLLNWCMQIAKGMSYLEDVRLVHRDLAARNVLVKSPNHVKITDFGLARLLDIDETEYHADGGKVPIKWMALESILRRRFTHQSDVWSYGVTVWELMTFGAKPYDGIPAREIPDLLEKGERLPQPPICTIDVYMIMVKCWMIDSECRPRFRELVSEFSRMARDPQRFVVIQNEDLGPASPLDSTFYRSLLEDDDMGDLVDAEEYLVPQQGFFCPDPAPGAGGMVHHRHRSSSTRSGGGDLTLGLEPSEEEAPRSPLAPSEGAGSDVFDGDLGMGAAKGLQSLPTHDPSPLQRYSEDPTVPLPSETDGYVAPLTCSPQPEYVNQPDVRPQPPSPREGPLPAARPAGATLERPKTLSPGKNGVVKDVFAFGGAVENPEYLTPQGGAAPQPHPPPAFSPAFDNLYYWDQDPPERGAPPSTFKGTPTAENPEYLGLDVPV
Description: Saturation radioligand binding assay in SKBR3 cells. The note with it: HER2 over expressing SKBR3 cells, 1 × 10^6 cells/well, 4–200 nM radiopeptide, 37 °C, 60 min, non-specific binding with unlabeled DOTA-A9, nonlinear regression, read-out: Binding affinity Kd. The procedure:
The binding affinity of [^177Lu]DOTA-A9 and [^177Lu]DOTA-PEG4-A9 was determined by the saturation radioligand binding assay in HER2 over expressing SKBR3 cells. 1 × 10^6 cells/well were seeded in cell culture plates and incubated at 37 °C. Cells were treated with series of increasing concentration of the radiolabeled peptide (4–200 nM) and incubated at 37 °C for 60 min. For obtaining non-specific binding, cells were co-incubated with radiolabeled formulations along with unlabeled DOTA-A9 peptide. On completion of incubation, cells were washed with the ice-cold phosphate buffer saline (PBS). Cells with bound radioactivity were harvested with 1 N NaOH (1 mL) solution (at 37 °C for 3 min) and counted in a gamma counter. Kd value was calculated by the nonlinear regression algorithm (GraphPad Prism version 7.0). The Bmax value (nM) was converted to the number of HER2 receptors per cell.

A short description of data set [2]: Biodistribution in SKBR3 tumor bearing SCID mice. The data set is classed as in vivo. The note with it: female, mouse, iv, 0.5 ug, total radioactivity, mean ± SD; for tissue to tissue ratio at 3 h: 3 h p.i.; for tissue to tissue ratio at 3 h / tissue to tissue ratio at 24 h / tissue to tissue ratio at 48 h: i.v. tail vein, 0.5 μg, 3.7 MBq; for tissue to tissue ratio at 24 h: 24 h p.i.; for tissue to tissue ratio at 48 h: 48 h p.i. The procedure:
Biodistribution studies of peptide tracers, [^177Lu]DOTA-A9 and [^177Lu]DOTA-PEG4-A9 were carried out in female SCID mice bearing human breast carcinoma, SKBR3 tumor xenografts. Tumor bearing mice (n = 3) were intravenously injected with peptide tracers (0.5 μg, 150 μL, 3.7 MBq) into the tail vein. Animals were sacrificed and dissected at 3 h, 24 h and 48 h post injection (p.i.). The radioactivity associated with each tissue was counted in a NaI (Tl) flat geometry detector and expressed as percentage injected dose per gram of tissue [% ID/g, mean ± standard deviation, n = 3/radiotracer].
Statistical analysis using the […] two-tailed Student’s t-test was performed to compare uptake values in tumor and major organs between [^177Lu]DOTA-A9 and [^177Lu]DOTA-PEG4-A9 animal groups; values of p < 0.05 were considered statistically significant.

In a further data set the test system is U-87 MG tumors. The following applies: in vivo; cited from earlier work. The protocol: Several Tc-99m-labeled peptides targeting HER2 receptors have also been studied. The high uptake of [^99mTc]HYNIC-(Ser)3-LTVPWY in U-87 MG tumors (2.08 ± 0.07% ID/g) at 1 h p.i. dropped to 0.04 ± 0.03% ID/g at 4 h p.i. […] Tumor-to-blood, tumor-to-muscle and tumor-to-kidney ratios reported were much lower for [^99mTc]CGGG-LTVSPWY and [^99mTc]CSSS-LTVSPWY compared to the current radiopeptides.

[3] abbreviates: tumor / blood, n = 3, read-out: Tumor-to-blood ratio.
[4] abbreviates: tumor / muscle, n = 3, read-out: Tumor-to-muscle ratio.

Where two headings read alike, the source gives them in different places. Residues, ends and D or L forms follow the SMILES beside them. *: point of attachment. DOTA = O=C(O)CN1CCN(CC(=O)O)CCN(CC(=O)*)CCN(CC(=O)O)CC1; PEG5 = NCCOCCOCCOCCOCCOCCC(=O)O A value given as a limit tells only on which side of the number the result lay.

In turn, `CC(C)[C@H](NC(=O)[C@H](C)NC(=O)[C@@H](NC(=O)[C@H](CC(N)=O)NC(=O)[C@@H](NC(=O)[C@H](CC(=O)O)NC(=O)[C@H](CCC(N)=O)NC(=O)CN1CCN(CC(=O)O)CCN(CC(=O)O)CCN(CC(=O)O)CC1)C(C)C)[C@@H](C)O)C(=O)N[C@@H](C)C(=O)N[C@@H](Cc1c[nH]c2ccccc12)C(N)=O` ({DOTA}-QDVNTAVAW-NH2) registered an intact radiopeptide after 6 h in human serum greater than 95%.
Turning to “DOTA(GSG)-KCCYSL [[^111In]DOTA(GSG)-KCCYSL, In-111 labeled HER2-targeting KCCYSL peptide]”, in the data set with MDA-MB-435 tumors, the Maximum tumor uptake is listed as 2.12 ± 0.32 % ID/g, the Tumor-to-blood ratio is on record as 10:1 and the Tumor-to-muscle ratio was 0.5:1.
Take `CC(C)[C@H](NC(=O)[C@H](C)NC(=O)[C@@H](NC(=O)[C@H](CC(N)=O)NC(=O)[C@@H](NC(=O)[C@H](CC(=O)O)NC(=O)[C@H](CCC(N)=O)NC(=O)CN1CCN(CC(=O)O)CCN(CC(=O)O)CCN(CC(=O)O)CC1)C(C)C)[C@@H](C)O)C(=O)N[C@@H](C)C(=O)N[C@@H](Cc1c[nH]c2ccccc12)C(N)=O` [DOTA-A9] ({DOTA}-QDVNTAVAW-NH2): the Solubility result in data set [1] was “no solubility issues”.
As to `CC(C)[C@H](NC(=O)[C@H](C)NC(=O)[C@@H](NC(=O)[C@H](CC(N)=O)NC(=O)[C@@H](NC(=O)[C@H](CC(=O)O)NC(=O)[C@H](CCC(N)=O)NC(=O)CN1CCN(CC(=O)O)CCN(CC(=O)O)CCN(CC(=O)O)CC1)C(C)C)[C@@H](C)O)C(=O)N[C@@H](C)C(=O)N[C@@H](Cc1c[nH]c2ccccc12)C(N)=O` [[^177Lu]DOTA-A9, metal not drawn] ({DOTA}-QDVNTAVAW-NH2), the “Degradation on incubation with human serum (radio-HPLC)” value in the data set “Human serum stability” is on record as “no degradation”. For the same compound, on HER2, the Kd came out at 48.4 ± 1.37 nM. For the same compound, in data set [2] (setting [3]), the tissue to tissue ratio at 3 h amounted to 3.4 ± 0.49 and the tissue to tissue ratio at 24 h stood at 7.42 ± 1.11. In addition, in data set [2] (setting [4]), the tissue to tissue ratio at 3 h was determined as 8.42 ± 0.04, the tissue to tissue ratio at 24 h stood at 8.09 ± 2.21 and the tissue to tissue ratio at 48 h stood at 10 ± 1.57.
For “HYNIC-(Ser)3-LTVPWY [[^99mTc]HYNIC-(Ser)3-LTVPWY, Tc-99m-labeled peptide targeting HER2 receptors]”, in the data set with U-87 MG tumors, the Tumor-to-blood ratio was 3.39, the Tumor-to-kidney ratio is recorded as 0.24 and the Tumor-to-muscle ratio is listed as 3.98.
As for `CC(C)[C@H](NC(=O)[C@H](C)NC(=O)[C@@H](NC(=O)[C@H](CC(N)=O)NC(=O)[C@@H](NC(=O)[C@H](CC(=O)O)NC(=O)[C@H](CCC(N)=O)NC(=O)CCOCCOCCOCCOCCOCCNC(=O)CN1CCN(CC(=O)O)CCN(CC(=O)O)CCN(CC(=O)O)CC1)C(C)C)[C@@H](C)O)C(=O)N[C@@H](C)C(=O)N[C@@H](Cc1c[nH]c2ccccc12)C(N)=O` [[^177Lu]DOTA-PEG4-A9, metal not drawn] ({DOTA-PEG5}-QDVNTAVAW-NH2), the intact radiopeptide after 6 h in human serum was greater than 95%. In addition, the “Degradation on incubation with human serum (radio-HPLC)” value in “Human serum stability” is listed as “no change in radiochromatogram”. Also, the Kd at HER2 stood at 55.7 ± 12.3 nM. In addition, the tissue uptake at 3 h in data set [2] (SKBR3 tumor, maximum observed at 3 h p.i., n = 3) was 2.04 ± 0.22 %ID/g. Further, in data set [2] (setting [3]), the tissue to tissue ratio at 3 h amounted to 3.85 ± 0.02, the tissue to tissue ratio at 24 h is 8.87 ± 1.51 and the tissue to tissue ratio at 48 h is 15 ± 1.42. In addition, in data set [2] (setting [4]), the tissue to tissue ratio at 3 h turned out to be 15.7 ± 2.06, the tissue to tissue ratio at 24 h worked out at 13.3 ± 0.03 and the tissue to tissue ratio at 48 h was found to be 30 ± 2.83.
